A word on the IC50: it is the midpoint of a concentration-inhibition curve. Read a high IC50 as weaker potency in that assay.

The first experiment deals with T1, DGKα (Homo sapiens, UniProt P23743). Briefly: Human DGKα kinase activity inhibition assay (ADP-Glo). The experiment is classed as biochemical. As to conditions: in vitro human DGKα kinase activity inhibition assay. In short, it runs like this:
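C-terminally FLAG-tagged full-length human DGKα from baculovirus/insect cells (typically ~0.1 nM) phosphorylated 1,2-dioleoyl-sn-glycerol in octyl-β-D-glucopyranoside micelles in MOPS pH 7.4. ADP formed was quantified by ADP-Glo luminescence after 1 h ATP depletion at 22 °C.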
Target sequence in this assay (P23743 with tags, fused parts or gaps): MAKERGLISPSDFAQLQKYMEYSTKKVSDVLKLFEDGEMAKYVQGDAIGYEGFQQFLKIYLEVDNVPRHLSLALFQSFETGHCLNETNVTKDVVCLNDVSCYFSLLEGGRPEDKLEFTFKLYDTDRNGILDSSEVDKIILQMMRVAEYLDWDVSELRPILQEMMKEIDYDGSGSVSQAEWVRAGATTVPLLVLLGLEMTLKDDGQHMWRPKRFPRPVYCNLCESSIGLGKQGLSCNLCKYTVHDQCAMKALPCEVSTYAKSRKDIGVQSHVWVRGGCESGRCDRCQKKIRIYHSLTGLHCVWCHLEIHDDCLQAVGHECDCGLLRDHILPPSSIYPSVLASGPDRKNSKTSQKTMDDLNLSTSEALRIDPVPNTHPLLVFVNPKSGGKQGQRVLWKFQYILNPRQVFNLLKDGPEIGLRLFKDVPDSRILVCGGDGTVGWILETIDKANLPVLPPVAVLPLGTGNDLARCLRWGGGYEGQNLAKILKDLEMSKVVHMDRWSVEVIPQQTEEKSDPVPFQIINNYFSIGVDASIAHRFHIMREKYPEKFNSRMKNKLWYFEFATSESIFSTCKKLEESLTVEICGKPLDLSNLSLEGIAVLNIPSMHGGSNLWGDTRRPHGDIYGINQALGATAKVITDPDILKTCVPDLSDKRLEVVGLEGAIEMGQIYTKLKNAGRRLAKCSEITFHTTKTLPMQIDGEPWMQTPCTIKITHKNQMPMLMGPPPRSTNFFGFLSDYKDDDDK
As to `Cn1c(=O)c(C#N)c(N2CCC(Oc3ccc(F)cc3)CC2)c2cc(Br)ccc21` [Example 137, 6-bromo-4-[4-(4-fluorophenoxy)piperidin-1-yl]-1-methyl-2-oxo-1,2-dihydroquinoline-3-carbonitrile], the IC50 was found to be 1.9 nM. Still for that read-out and setting: with `Cn1c(=O)c(C#N)c(N2CCC(Oc3ccc(OC(F)(F)F)cc3)CC2)c2cccc(Br)c21` [Example 130, 8-bromo-1-methyl-2-oxo-4-{4-[4-(trifluoromethoxy)phenoxy]piperidin-1-yl}-1,2-dihydroquinoline-3-carbonitrile] the figure was 202 nM. On the same count and under the same terms, then `Cn1c(=O)c(C#N)c(N2CCC(Oc3cccc(Cl)c3)CC2)c2ccc(C3COC3)cc21` [Example 73, 4-[4-(3-chlorophenoxy)piperidin-1-yl]-1-methyl-7-(oxetan-3-yl)-2-oxo-1,2-dihydroquinoline-3-carbonitrile], with 13 nM; and `COCCc1ccc2c(N3CCC(Oc4ccc(Cl)cc4)CC3)c(C#N)c(=O)n(C)c2c1` [Example 75, 4-[4-(4-chlorophenoxy)piperidin-1-yl]-7-(2-methoxyethyl)-1-methyl-2-oxo-1,2-dihydroquinoline-3-carbonitrile], with 3.7 nM.

Molecule `COc1cc(C)ccc1OC1CCN(c2c(C#N)c(=O)n(C)c3ccc(C)cc23)CC1` [Example 153, 4-[4-(2-methoxy-4-methylphenoxy)piperidin-1-yl]-1,6-dimethyl-2-oxo-1,2-dihydroquinoline-3-carbonitrile] yielded an IC50 of 10 nM.

In turn, `Cn1c(=O)c(C#N)c(N2CCC(Oc3ccc(C(N)=O)cc3)CC2)c2ccccc21` [Example 35, 4-{[1-(3-cyano-1-methyl-2-oxo-1,2-dihydroquinolin-4-yl)piperidin-4-yl]oxy}benzamide] displayed a concentration for half-maximal inhibition (IC50) of 646 nM. Against the preceding molecule, the IC50 is about 65-fold higher. For the molecule `Cn1c(=O)c(C#N)c(N2CCC(Sc3ccccc3)CC2)c2ccc(Br)cc21` [Example 55, 7-bromo-1-methyl-2-oxo-4-[4-(phenylsulfanyl)piperidin-1-yl]-1,2-dihydroquinoline-3-carbonitrile], the IC50 was determined as 4.4 nM. This IC50 lies about 150-fold lower than the previous one. The same measure, in the same setting: with `Cn1c(=O)c(C#N)c(N2CCC(Oc3cccc(F)c3)CC2)c2ccccc21` [Example 7, 4-[4-(3-fluorophenoxy)piperidin-1-yl]-1-methyl-2-oxo-1,2-dihydroquinoline-3-carbonitrile] the figure was 8.6 nM. For `Cn1c(=O)c(C#N)c(N2CCC(Oc3ccc(OC(F)(F)F)cc3)CC2)c2cccc(S(C)(=O)=O)c21` [Example 136, 8-(methanesulfonyl)-1-methyl-2-oxo-4-{4-[4-(trifluoromethoxy)phenoxy]piperidin-1-yl}-1,2-dihydroquinoline-3-carbonitrile], the IC50 stood at 2.5 nM. This IC50 is about 3.4-fold lower than that of the molecule before. Same read-out and setting: with `Cn1c(=O)c(C#N)c(N2CCC(Oc3ccc(OC(F)(F)F)cc3)CC2)c2cccc(N3CCCC3=O)c21` [Example 133, 1-methyl-2-oxo-8-(2-oxopyrrolidin-1-yl)-4-{4-[4-(trifluoromethoxy)phenoxy]piperidin-1-yl}-1,2-dihydroquinoline-3-carbonitrile] the figure was 55 nM; with `Cn1ccn(-c2ccc(OC3CCN(c4c(C#N)c(=O)n(C)c5ccccc45)CC3)cc2)c1=O` [Example 25, 1-methyl-4-{4-[4-(3-methyl-2-oxo-2,3-dihydro-1H-imidazol-1-yl)phenoxy]piperidin-1-yl}-2-oxo-1,2-dihydroquinoline-3-carbonitrile], 283 nM. The same measure, in the same setting: with `Cn1c(=O)c(C(N)=O)c(N2CCC(Oc3ccc(Cl)cc3)CC2)c2ccc(N3CCCC3=O)cc21` [Example 97, 4-[4-(4-chlorophenoxy)piperidin-1-yl]-1-methyl-2-oxo-7-(2-oxopyrrolidin-1-yl)-1,2-dihydroquinoline-3-carboxamide] the figure was 122 nM; with `Cn1c(=O)c(C#N)c(N2CCCC(Oc3ccc(OC(F)(F)F)cc3)CC2)c2ccccc21` (racemic) [Example 100, (rac)-1-methyl-2-oxo-4-{4-[4-(trifluoromethoxy)phenoxy]azepan-1-yl}-1,2-dihydroquinoline-3-carbonitrile], 8.3 nM.

For `Cn1c(=O)c(C#N)c(N2CCCC(Oc3ccc(N4CCC4)cc3)CC2)c2ccccc21` (racemic) [Example 104, (rac)-4-{4-[4-(azetidin-1-yl)phenoxy]azepan-1-yl}-1-methyl-2-oxo-1,2-dihydroquinoline-3-carbonitrile], it took 40 nM to reach half-maximal inhibition (IC50). Still for that read-out and setting: with `Cn1c(=O)c(C#N)c(N2CCC(Oc3cccc(OC(F)(F)F)c3)CC2)c2ccccc21` [Example 38, 1-methyl-2-oxo-4-{4-[3-(trifluoromethoxy)phenoxy]piperidin-1-yl}-1,2-dihydroquinoline-3-carbonitrile] the figure was 18 nM; with `COc1ccc2c(N3CCC(Oc4ccc(OC(F)(F)F)cc4)CC3)c(C#N)c(=O)n(C)c2c1` [Example 71, 7-methoxy-1-methyl-2-oxo-4-{4-[4-(trifluoromethoxy)phenoxy]piperidin-1-yl}-1,2-dihydroquinoline-3-carbonitrile], 5.7 nM.

In the case of `Cn1c(=O)c(C#N)c(N2CCC(Oc3ccc(Cl)cc3)CC2)c2ccc(N3CCCC3=O)cc21` [Example 85, 4-[4-(4-chlorophenoxy)piperidin-1-yl]-1-methyl-2-oxo-7-(2-oxopyrrolidin-1-yl)-1,2-dihydroquinoline-3-carbonitrile], the IC50 worked out at 28 nM. The same measure, in the same setting: with `COc1ccc2c(N3CCC(Oc4ccccc4)CC3)c(C#N)c(=O)n(C)c2c1` [Example 89, 7-methoxy-1-methyl-2-oxo-4-(4-phenoxypiperidin-1-yl)-1,2-dihydroquinoline-3-carbonitrile] the figure was 4.7 nM. Same read-out and setting: with `Cn1c(=O)c(C#N)c(N2CCC(Oc3ccc(OC(F)(F)F)cc3)CC2)c2cc(C#N)ccc21` [Example 145, 1-methyl-2-oxo-4-{4-[4-(trifluoromethoxy)phenoxy]piperidin-1-yl}-1,2-dihydroquinoline-3,6-dicarbonitrile] the figure was 4.4 nM. On the same count and under the same terms, then `COc1ccc2c(N3CCC(Oc4ccc(C(F)(F)F)cc4)CC3)c(C#N)c(=O)n(C)c2c1` [Example 66, 7-methoxy-1-methyl-2-oxo-4-{4-[4-(trifluoromethyl)phenoxy]piperidin-1-yl}-1,2-dihydroquinoline-3-carbonitrile], with 14 nM; and `Cn1c(=O)c(C#N)c(N2CCC(Cc3ccc(C#N)cc3)CC2)c2ccccc21` [Example 95, 4-{4-[(4-cyanophenyl)methyl]piperidin-1-yl}-1-methyl-2-oxo-1,2-dihydroquinoline-3-carbonitrile], with 15 nM; and `Cc1ccc2c(c1)c(N1CCC(Oc3ccc(OC(F)(F)F)cc3)CC1)c(C#N)c(=O)n2C` [Example 143, 1,6-dimethyl-2-oxo-4-{4-[4-(trifluoromethoxy)phenoxy]piperidin-1-yl}-1,2-dihydroquinoline-3-carbonitrile], with 4.7 nM.

`Cn1c(=O)c(C#N)c(N2CCC(Oc3ccc4cnoc4c3)CC2)c2ccccc21` [Example 29, 4-{4-[(1,2-benzoxazol-6-yl)oxy]piperidin-1-yl}-1-methyl-2-oxo-1,2-dihydroquinoline-3-carbonitrile] came in with an IC50 of 654 nM. The same measure, in the same setting: with `Cn1c(=O)c(C#N)c(N2CCC(Oc3ccc(OC(F)(F)F)cc3)CC2)c2ccc(Br)cc21` [Example 58, 7-bromo-1-methyl-2-oxo-4-{4-[4-(trifluoromethoxy)phenoxy]piperidin-1-yl}-1,2-dihydroquinoline-3-carbonitrile] the figure was 19 nM. `Cn1c(=O)c(C#N)c(N2CCC(Sc3ccccc3)CC2)c2cc(C3CC3)ccc21` [Example 147, 6-cyclopropyl-1-methyl-2-oxo-4-[4-(phenylsulfanyl)piperidin-1-yl]-1,2-dihydroquinoline-3-carbonitrile] had an IC50 of 32 nM.

The test system of the next experiment is GBM tumors.
Assay: not given
As to conditions: concurrent administration; literature report; cited from earlier work.
Take `Cc1nc2sccn2c(=O)c1CCN1CCC(=C(c2ccccc2)c2ccc(F)cc2)CC1` [Example R59022]: the “growth of intracranially injected GBM tumors” value is reported as “decreased growth”.

In another experiment the target is T1, DGKα.
Assay: not given
The note with it: literature report; cited from earlier work.
Target sequence in this assay (P23743 whole entry, species assumed): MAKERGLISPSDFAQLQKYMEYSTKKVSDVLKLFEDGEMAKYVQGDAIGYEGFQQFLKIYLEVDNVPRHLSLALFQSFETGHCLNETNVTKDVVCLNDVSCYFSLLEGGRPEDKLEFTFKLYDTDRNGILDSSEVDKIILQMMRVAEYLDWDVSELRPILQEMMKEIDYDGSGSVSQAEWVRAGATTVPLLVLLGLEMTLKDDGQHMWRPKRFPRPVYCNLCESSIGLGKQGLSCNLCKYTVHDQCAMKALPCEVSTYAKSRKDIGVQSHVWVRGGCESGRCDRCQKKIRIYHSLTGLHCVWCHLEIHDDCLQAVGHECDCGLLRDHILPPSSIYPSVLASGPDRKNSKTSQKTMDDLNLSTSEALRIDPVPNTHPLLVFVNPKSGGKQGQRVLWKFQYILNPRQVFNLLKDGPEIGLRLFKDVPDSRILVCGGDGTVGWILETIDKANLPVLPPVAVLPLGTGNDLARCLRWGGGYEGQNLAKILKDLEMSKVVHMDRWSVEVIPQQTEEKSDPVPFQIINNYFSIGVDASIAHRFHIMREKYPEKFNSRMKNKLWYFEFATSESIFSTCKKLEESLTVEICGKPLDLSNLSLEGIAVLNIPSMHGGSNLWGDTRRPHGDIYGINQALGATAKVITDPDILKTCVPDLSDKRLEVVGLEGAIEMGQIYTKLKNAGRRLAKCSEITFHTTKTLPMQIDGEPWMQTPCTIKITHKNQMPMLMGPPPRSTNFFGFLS
For `Cc1ccc2c(C(=O)CN3CCN(C(=O)c4ccco4)CC3)c(C)[nH]c2c1` [AMB639752], the “inhibitory activity on DGKα” value is “micromolar”. On to `O=C1/C(=C\C=C\c2ccco2)SC(=S)N1NS(=O)(=O)c1ccccc1` [CU-3], for which the “inhibitory activity on DGKα” value is “sub-micromolar”.

With `Cc1nc2sccn2c(=O)c1CCN1CCC(=C(c2ccc(F)cc2)c2ccc(F)cc2)CC1` [Ritanserin], the “inhibitory activity on DGKα” value was “comparable activity”.
